Test results from patent US20260216164A1, “INDOLE COMPOUND DECOMPOSING IKZF2, AND USE THEREOF” (KOREA RESEARCH INSTITUTE OF CHEMICAL TECHNOLOGY, priority 2023, published 2026).

Biological target: Helios (IKZF2) (Homo sapiens, UniProt Q96SW2+Q9UKS7)
Experiment: Screening of Helios protein degraders using Nano-Glo HiBiT cell line (HiBiT-IKZF2)
Format: cell-based
Details: for remaining activity at 1 µM: compound 1 μM, read-out: HiBiT-IKZF2 Residual amount of Helios (%) 1 μM; for remaining activity at 1 µM / remaining activity at 10 µM: 6 hours, HiBiT-Helios knock-in Jurkat cells; for remaining activity at 10 µM: compound 10 μM, read-out: HiBiT-IKZF2 Residual amount of Helios (%) 10 μM; for IKZF2 degradation activity (in words, comment on Table 1): as shown in Table 1
Protocol: To observe intracellular degradation of Helios, the Nano-Glo HiBiT detection system (Promega) was employed. […] The cells expressing Helios fused with HiBiT were validated using the Nano-Glo HiBiT detection system (Promega) according to a predetermined protocol, isolated as single cells, and cultured in complete medium to establish a monoclonal cell line.
After 6 hours, the Nano-Glo HiBiT detection reagent was added to each well in an equal volume to the cell culture medium and incubated at room temperature for 10 minutes. Following incubation, the HiBiT luminescence signal was measured using a microplate reader (Perkin Elmer).

Chain of Helios (IKZF2) (Q9UKS7 whole entry): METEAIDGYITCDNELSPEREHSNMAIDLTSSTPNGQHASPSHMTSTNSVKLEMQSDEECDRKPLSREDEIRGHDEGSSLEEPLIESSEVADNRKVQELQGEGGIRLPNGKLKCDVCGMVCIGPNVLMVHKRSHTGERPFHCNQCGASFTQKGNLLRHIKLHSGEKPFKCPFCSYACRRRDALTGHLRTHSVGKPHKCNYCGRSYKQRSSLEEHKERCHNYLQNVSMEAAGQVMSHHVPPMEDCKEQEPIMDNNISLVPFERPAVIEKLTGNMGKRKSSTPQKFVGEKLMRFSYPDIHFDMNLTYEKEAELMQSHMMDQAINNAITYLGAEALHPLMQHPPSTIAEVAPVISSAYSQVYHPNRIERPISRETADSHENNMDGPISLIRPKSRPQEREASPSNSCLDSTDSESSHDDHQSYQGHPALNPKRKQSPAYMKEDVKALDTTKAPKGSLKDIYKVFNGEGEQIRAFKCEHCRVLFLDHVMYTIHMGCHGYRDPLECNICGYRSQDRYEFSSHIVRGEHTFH
Chain of Helios (IKZF2) (Q96SW2 whole entry): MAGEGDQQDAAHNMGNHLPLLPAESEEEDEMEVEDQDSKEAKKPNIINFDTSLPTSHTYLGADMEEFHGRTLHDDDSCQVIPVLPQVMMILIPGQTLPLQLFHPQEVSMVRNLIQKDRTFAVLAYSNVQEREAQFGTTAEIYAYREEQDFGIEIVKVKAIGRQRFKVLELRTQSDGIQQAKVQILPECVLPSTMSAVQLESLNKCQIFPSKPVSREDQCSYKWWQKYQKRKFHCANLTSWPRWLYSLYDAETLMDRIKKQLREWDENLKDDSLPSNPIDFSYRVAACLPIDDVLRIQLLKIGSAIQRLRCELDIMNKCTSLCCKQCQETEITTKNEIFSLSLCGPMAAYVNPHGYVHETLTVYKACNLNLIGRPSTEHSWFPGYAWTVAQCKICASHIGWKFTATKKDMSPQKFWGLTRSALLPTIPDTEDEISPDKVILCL
Chain of Helios (IKZF2) (Q16531 whole entry partner): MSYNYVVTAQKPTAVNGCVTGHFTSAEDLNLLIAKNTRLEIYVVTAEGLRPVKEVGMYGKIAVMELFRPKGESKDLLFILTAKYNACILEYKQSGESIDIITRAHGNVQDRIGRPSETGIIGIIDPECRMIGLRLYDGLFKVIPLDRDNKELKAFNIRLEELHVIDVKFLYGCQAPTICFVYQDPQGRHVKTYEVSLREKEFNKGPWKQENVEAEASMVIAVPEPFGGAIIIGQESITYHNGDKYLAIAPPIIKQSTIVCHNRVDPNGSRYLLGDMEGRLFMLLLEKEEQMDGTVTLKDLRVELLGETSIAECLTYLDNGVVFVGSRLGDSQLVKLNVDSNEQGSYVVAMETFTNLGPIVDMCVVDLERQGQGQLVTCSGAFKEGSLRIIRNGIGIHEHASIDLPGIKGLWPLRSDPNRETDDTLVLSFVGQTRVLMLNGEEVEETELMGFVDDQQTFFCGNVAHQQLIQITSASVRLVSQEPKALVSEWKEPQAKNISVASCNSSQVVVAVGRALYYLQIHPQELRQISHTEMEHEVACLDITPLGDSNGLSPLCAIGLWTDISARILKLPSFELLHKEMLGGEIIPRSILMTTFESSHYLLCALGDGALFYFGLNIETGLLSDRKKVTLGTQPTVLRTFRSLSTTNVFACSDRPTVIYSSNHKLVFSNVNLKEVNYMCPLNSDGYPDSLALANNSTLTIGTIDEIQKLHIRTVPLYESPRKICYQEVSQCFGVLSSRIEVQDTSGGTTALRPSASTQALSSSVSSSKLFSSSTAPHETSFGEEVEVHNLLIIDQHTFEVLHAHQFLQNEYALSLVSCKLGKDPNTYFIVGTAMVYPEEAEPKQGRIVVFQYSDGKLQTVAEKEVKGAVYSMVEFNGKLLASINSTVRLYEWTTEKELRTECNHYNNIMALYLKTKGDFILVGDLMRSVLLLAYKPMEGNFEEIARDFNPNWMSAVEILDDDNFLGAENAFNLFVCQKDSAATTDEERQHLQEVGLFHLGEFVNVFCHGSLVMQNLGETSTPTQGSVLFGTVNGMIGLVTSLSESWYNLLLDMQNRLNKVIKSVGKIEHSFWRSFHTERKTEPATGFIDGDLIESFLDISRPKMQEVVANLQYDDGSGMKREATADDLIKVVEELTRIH

| SMILES | remaining activity at 1 µM [%] | remaining activity at 10 µM [%] | IKZF2 degradation activity (in words, comment on Table 1) |
| --- | --- | --- | --- |
| O=C1CCC(N2Cc3cc(C4CCN(C(=O)c5cc6ccc(Cl)c(Cl)c6[nH]5)CC4)ccc3C2=O)C(=O)N1 (stereo not shown) [Compound 2, 3-(5-(1-(6,7-dichloro-1H-indole-2-carbonyl)piperidin-4-yl)-1-oxoinsoindolin-2-yl)piperidine-2,6-dione] | 78.3 | 92.1 |  |
| O=C1CCC(N2Cc3cc(C4CCN(C(=O)c5c[nH]c6cc(Cl)ccc56)CC4)ccc3C2=O)C(=O)N1 (stereo not shown) [Comparative Substance 2, 3-(5-(1-(6-chloro-1H-indole-3-carbonyl)piperidin-4-yl)-1-oxoinsoindolin-2-yl)piperidine-2,6-dione, reference compound] |  | 100 |  |
| Cc1cc2c(C)c(C(=O)N3CCC(c4ccc5c(c4)CN(C4CCC(=O)NC4=O)C5=O)CC3)[nH]c2cc1Cl (stereo not shown) [Compound 103, 3-(5-(1-(6-chloro-3,5-dimethyl-1H-indole-2-carbonyl)piperidin-4-yl)-1-oxoinsoindolin-2-yl)piperidine-2,6-dione] | 26.8 | 20.6 |  |
| COc1c(C(=O)N2CCC(c3ccc4c(c3)CN(C3CCC(=O)NC3=O)C4=O)CC2)[nH]c2ccccc12 (stereo not shown) [Compound 30, 3-(5-(1-(3-methoxy-1H-indole-2-carbonyl)piperidin-4-yl)-1-oxoinsoindolin-2-yl)piperidine-2,6-dione] | 86.7 | 78.7 |  |
| Cc1c(C(=O)N2CCC(n3cc(-c4ccc5c(c4)CN(C4CCC(=O)NC4=O)C5=O)nn3)CC2)[nH]c2cc(Cl)ccc12 (stereo not shown) [Compound 66, 3-(5-(1-(1-(6-chloro-3-methyl-1H-indole-2-carbonyl)piperidin-4-yl)-1H-1,2,3-triazol-4-yl)-1-oxoinsoindolin-2-yl)piperidine-2,6-dione] |  | 87.8 |  |
| Cc1c(C(=O)N2CCC(c3ccc4c(c3)C(=O)N(C3CCC(=O)NC3=O)C4=O)CC2)[nH]c2cc(Cl)ccc12 (stereo not shown) [Compound 92, 5-(1-(6-chloro-3-methyl-1H-indole-2-carbonyl)piperidin-4-yl)-2-(2,6-dioxopiperidin-3-yl)isoindoline-1,3-dione] |  | 36.1 |  |
| COc1cccc2[nH]c(C(=O)N3CCC(c4ccc5c(c4)CN(C4CCC(=O)NC4=O)C5=O)CC3)cc12 (stereo not shown) [Compound 11, 3-(5-(1-(4-methoxy-1H-indole-2-carbonyl)piperidin-4-yl)-1-oxoinsoindolin-2-yl)piperidine-2,6-dione] | 99.5 | 98 |  |
| O=Cc1c(C(=O)N2CCC(c3ccc4c(c3)CN(C3CCC(=O)NC3=O)C4=O)CC2)[nH]c2ccccc12 (stereo not shown) [Compound 35, 2-(4-(2-(2,6-dioxopiperidin-3-yl)-1-oxoindolin-5-yl)piperidine-1-carbonyl)-1H-indole-3-carbaldehyde] | 76.6 | 52.3 |  |
| Cc1c(C(=O)N2CCC(c3ccc4c(c3)CN(C3CCC(=O)NC3=O)C4=O)C2)[nH]c2cc(Cl)ccc12 (stereo not shown) [Compound 67, 3-(5-(1-(6-chloro-3-methyl-1H-indole-2-carbonyl)pyrrolidin-3-yl)-1-oxoinsoindolin-2-yl)piperidine-2,6-dione] |  | 78.7 |  |
| O=Cc1c(C(=O)N2CCC(c3ccc4c(c3)CN(C3CCC(=O)NC3=O)C4=O)CC2)[nH]c2cc(Cl)ccc12 (stereo not shown) [Compound 81, 6-chloro-2-(4-(2-(2,6-dioxopiperidin-3-yl)-1-oxoindolin-5-yl)piperidine-1-carbonyl)-1H-indole-3-carbaldehyde] |  | 28.7 |  |
| O=C1CCC(N2Cc3cc(C4CCN(C(=O)c5[nH]c6ccccc6c5F)CC4)ccc3C2=O)C(=O)N1 (stereo not shown) [Compound 37, 3-(5-(1-(3-fluoro-1H-indole-2-carbonyl)piperidin-4-yl)-1-oxoinsoindolin-2-yl)piperidine-2,6-dione] | 99.6 | 77.5 |  |
| Cc1c(C(=O)N2CCC(c3ccc4c(c3)CN(C3CCC(=O)NC3=O)C4=O)CC2)[nH]c2cc(Cl)cc(Cl)c12 (stereo not shown) [Compound 107, 3-(5-(1-(4,6-dichloro-3-methyl-1H-indole-2-carbonyl)piperidin-4-yl)-1-oxoinsoindolin-2-yl)piperidine-2,6-dione] | 56.6 | 51.5 |  |
| Cc1c(C(=O)N2CCC(c3ccc4c(c3F)CN(C3CCC(=O)N(COC(=O)C(C)(C)C)C3=O)C4=O)CC2)[nH]c2cc(Cl)ccc12 (stereo not shown) [Compound 123, (3-(5-(1-(6-chloro-3-methyl-1H-indole-2-carbonyl)piperidin-4-yl)-4-fluoro-1-oxoinsoindolin-2-yl)-2,6-dioxopiperidin-1-yl)methyl pivalate] |  | 14.3 |  |
| O=C1CCC(N2Cc3cc(C4CC5CCC(C4)N5C(=O)c4cc5ccc(Cl)cc5[nH]4)ccc3C2=O)C(=O)N1 (stereo not shown) [Compound 57, 3-(5-(8-(6-chloro-1H-indole-2-carbonyl)-8-azabicyclo[3.2.1]octan-3-yl)-1-oxoinsoindolin-2-yl)piperidine-2,6-dione] |  | 64.5 |  |
| CC(=O)Nc1ccc2c(C)c(C(=O)N3CCC(c4ccc5c(c4)CN(C4CCC(=O)NC4=O)C5=O)CC3)[nH]c2c1 (stereo not shown) [Compound 73, N-(2-(4-(2-(2,6-dioxopiperidin-3-yl)-1-oxoindolin-5-yl)piperidine-1-carbonyl)-3-methyl-1H-indol-6-yl)acetamide] | 59.2 | 27.8 |  |
| O=C1CCC(N2Cc3cc(C4CCN(C(=O)c5cc6ccc(F)cc6[nH]5)CC4)ccc3C2=O)C(=O)N1 (stereo not shown) [Compound 7, 3-(5-(1-(6-fluoro-1H-indole-2-carbonyl)piperidin-4-yl)-1-oxoinsoindolin-2-yl)piperidine-2,6-dione] | 93.3 | 98.6 |  |
| O=C1CCC(N2Cc3cc(C4CCN(C(=O)c5nc6ccc(Cl)cc6[nH]5)CC4)ccc3C2=O)C(=O)N1 (stereo not shown) [Comparative Substance 3, 3-(5-(1-(6-chloro-1H-benzo[d]imidazole-2-carbonyl)piperidin-4-yl)-1-oxoinsoindolin-2-yl)piperidine-2,6-dione, reference compound] |  | 100 | no IKZF2 degradation activity was observed |
| Cc1c(C(=O)N2CC(N3CCC(c4ccc5c(c4)CN(C4CCC(=O)NC4=O)C5=O)CC3)C2)[nH]c2cc(Cl)ccc12 (stereo not shown) [Compound 63, 3-(5-(1-(1-(6-chloro-3-methyl-1H-indole-2-carbonyl)azetidin-3-yl)piperidin-4-yl)-1-oxoinsoindolin-2-yl)piperidine-2,6-dione] |  | 30.7 | excellent IKZF2 degradation activity |
| COc1ccc2cc(C(=O)N3CCC(c4ccc5c(c4)CN(C4CCC(=O)NC4=O)C5=O)CC3)[nH]c2c1 (stereo not shown) [Compound 5, 3-(5-(1-(6-methoxy-1H-indole-2-carbonyl)piperidin-4-yl)-1-oxoinsoindolin-2-yl)piperidine-2,6-dione] | 86.7 | 88.2 |  |
| Cc1ccc2c(C)c(C(=O)N3CCC(c4ccc5c(c4)CN(C4CCC(=O)NC4=O)C5=O)CC3)[nH]c2c1 (stereo not shown) [Compound 69, 3-(5-(1-(3,6-dimethyl-1H-indole-2-carbonyl)piperidin-4-yl)-1-oxoinsoindolin-2-yl)piperidine-2,6-dione] | 22 | 41.8 |  |
| Cc1c(C(=O)N2CC=C(c3ccc4c(c3)CN(C3CCC(=O)NC3=O)C4=O)CC2)[nH]c2cc(Cl)ccc12 (stereo not shown) [Compound 70, 3-(5-(1-(6-chloro-3-methyl-1H-indole-2-carbonyl)-1,2,3,6-tetrahydropyridin-4-yl)-1-oxoinsoindolin-2-yl)piperidine-2,6-dione] | 94.8 | 101 |  |
| Cc1c(C(=O)N2CCC(c3ccc4c(c3)CN(C3CCC(=O)NC3=O)C4=O)CC2)[nH]c2cc(Cl)c(Cl)cc12 (stereo not shown) [Compound 72, 3-(5-(1-(5,6-dichloro-3-methyl-1H-indole-2-carbonyl)piperidin-4-yl)-1-oxoinsoindolin-2-yl)piperidine-2,6-dione] | 43.3 | 34.3 |  |
| CC1CC(c2ccc3c(c2)CN(C2CCC(=O)NC2=O)C3=O)CCN1C(=O)c1cc2ccc(Cl)cc2[nH]1 (stereo not shown) [Compound 59, 3-(5-(1-(6-chloro-1H-indole-2-carbonyl)-2-methylpiperidin-4-yl)-1-oxoinsoindolin-2-yl)piperidine-2,6-dione] |  | 25.4 |  |
| Cc1cccc2[nH]c(C(=O)N3CCC(c4ccc5c(c4)CN(C4CCC(=O)NC4=O)C5=O)CC3)cc12 (stereo not shown) [Compound 14, 3-(5-(1-(4-methyl-1H-indole-2-carbonyl)piperidin-4-yl)-1-oxoinsoindolin-2-yl)piperidine-2,6-dione] | 89 | 98.4 |  |
| O=C1CCC(N2Cc3cc(C4CCN(C(=O)c5cc6cc(Cl)ccc6[nH]5)CC4)ccc3C2=O)C(=O)N1 (stereo not shown) [Compound 3, 3-(5-(1-(5-chloro-1H-indole-2-carbonyl)piperidin-4-yl)-1-oxoinsoindolin-2-yl)piperidine-2,6-dione] | 102 | 106 |  |
| COc1ccc2c(C)c(C(=O)N3CCC(c4ccc5c(c4)CN(C4CCC(=O)NC4=O)C5=O)CC3)[nH]c2c1 (stereo not shown) [Compound 42, 3-(5-(1-(6-methoxy-3-methyl-1H-indole-2-carbonyl)piperidin-4-yl)-1-oxoinsoindolin-2-yl)piperidine-2,6-dione] | 13.9 | 13 |  |
| O=C1CCC(N2Cc3cc(C4CCN(C(=O)c5cc6cccc(Cl)c6[nH]5)CC4)ccc3C2=O)C(=O)N1 (stereo not shown) [Compound 8, 3-(5-(1-(7-chloro-1H-indole-2-carbonyl)piperidin-4-yl)-1-oxoinsoindolin-2-yl)piperidine-2,6-dione] | 99.5 | 109 |  |
